18 compounds from ChEMBL document CHEMBL1143080, “Discovery of a novel series of nonsteroidal androgen receptor modulators: 5- or 6-oxachrysen-2-ones” (Bioorg Med Chem Lett, 2008) can be followed below.

Molecules are shown by their SMILES. pEC50, pIC50, pKi: −log10 of the molar value. A value given as a limit tells only on which side of the number the result lay.

Experiment [1] has as its target T1, Androgen receptor (Homo sapiens, UniProt P10275).
T1 sequence (P10275 whole entry): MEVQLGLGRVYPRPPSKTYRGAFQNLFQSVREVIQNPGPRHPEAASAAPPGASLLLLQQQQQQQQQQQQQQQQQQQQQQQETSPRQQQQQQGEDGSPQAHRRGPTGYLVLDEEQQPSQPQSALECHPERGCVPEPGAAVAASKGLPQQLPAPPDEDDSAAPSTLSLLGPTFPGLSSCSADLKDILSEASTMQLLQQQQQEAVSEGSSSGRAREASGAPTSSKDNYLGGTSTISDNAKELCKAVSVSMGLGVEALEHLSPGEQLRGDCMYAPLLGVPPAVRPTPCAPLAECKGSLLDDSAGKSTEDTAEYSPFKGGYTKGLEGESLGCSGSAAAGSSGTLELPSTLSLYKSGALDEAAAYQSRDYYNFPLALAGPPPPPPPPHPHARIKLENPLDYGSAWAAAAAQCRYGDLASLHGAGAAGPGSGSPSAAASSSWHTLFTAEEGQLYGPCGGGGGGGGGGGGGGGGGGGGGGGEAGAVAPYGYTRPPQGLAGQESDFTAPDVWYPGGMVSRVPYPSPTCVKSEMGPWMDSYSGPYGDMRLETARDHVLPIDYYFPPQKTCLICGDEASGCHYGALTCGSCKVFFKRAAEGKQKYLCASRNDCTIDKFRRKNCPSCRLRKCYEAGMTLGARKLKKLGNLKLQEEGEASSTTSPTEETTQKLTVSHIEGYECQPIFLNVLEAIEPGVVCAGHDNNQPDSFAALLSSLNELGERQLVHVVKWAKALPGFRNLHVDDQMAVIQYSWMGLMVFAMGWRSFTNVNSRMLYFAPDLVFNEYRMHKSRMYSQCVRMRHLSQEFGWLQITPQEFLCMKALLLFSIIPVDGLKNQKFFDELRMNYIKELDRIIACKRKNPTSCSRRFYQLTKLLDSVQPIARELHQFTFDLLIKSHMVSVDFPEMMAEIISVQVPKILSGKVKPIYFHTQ
Description: Agonist activity at human androgen receptor african green monkey CV1 cells by cotransfection assay

In experiment [2] the target is T1, Androgen receptor. This is another data set of the same source.
Description: Antagonist activity at human androgen receptor african green monkey CV1 cells by cotransfection assay
Experiment [3] has as its target T1, Androgen receptor. This is another data set of the same source.
Description: Binding affinity to human androgen receptor expressed in monkey COS7 cells by whole cell binding assay
For experiment [4], the target named is T1, Androgen receptor. This is another data set of the same source.
Description: Activity at androgen receptor in human Saos2 cells assessed as IL6 repression

For orientation: pEC50 means the EC50 on a negative log10 scale, so that one unit is a factor of ten. For orientation: pIC50 means the IC50 on a negative log10 scale, so that one unit is a factor of ten. A high value points to a small IC50. Usually pKi stands for the Ki on a negative log10 scale, so that one unit is a factor of ten. A lower pKi goes with a large Ki.

Compound `Cc1cc(=O)[nH]c2ccc3c4cc(F)ccc4oc(=O)c3c12` showed a pEC50 at Androgen receptor [1] of 6.62. In addition, the pIC50 was 7.57 on Androgen receptor [2] and 7.00 on Androgen receptor [4]. At Androgen receptor [3], this compound had a pKi of 6.00.

Consider `COc1c(OC(C)C)ccc2oc(=O)c3c(ccc4[nH]c(=O)cc(C)c43)c12`, for which the pEC50 at Androgen receptor [1] was 7.64. Moreover, the pIC50 was 7.70 on Androgen receptor [2] and 8.55 on Androgen receptor [4]. For the same compound, the pKi at Androgen receptor [3] was 7.68.

In turn, `COc1cccc2c1-c1ccc3[nH]c(=O)cc(C)c3c1C(C)O2` (stereo not given) showed a pEC50 on Androgen receptor [1] below 5.00. This compound also gave a pIC50 at Androgen receptor [2] of 7.21. Moreover, the pKi at Androgen receptor [3] is 6.60.

Regarding `COc1ccc2oc(=O)c3c(ccc4[nH]c(=O)cc(C)c43)c2c1`, the pEC50 at Androgen receptor [1] was below 5.00. The pIC50 is 7.32 against Androgen receptor [2] and 9.10 against Androgen receptor [4]. The compound also gave a pKi on Androgen receptor [3] of 6.21.

`COc1c(O)ccc2c1-c1ccc3[nH]c(=O)cc(C)c3c1CO2` had a negative logarithm of the EC50 (pEC50) on Androgen receptor [1] of 6.51. Also, the negative-log IC50 (pIC50) against Androgen receptor [2] is 7.72; at Androgen receptor [4], 8.92. The pKi on Androgen receptor [3] was 8.30.

Turning to `COc1cccc2oc(=O)c3c(ccc4[nH]c(=O)cc(C)c43)c12`, the pEC50 on Androgen receptor [1] was 7.96. In addition, the figures for the pIC50 against Androgen receptor [2] and at Androgen receptor [4] were below 5.00 and 7.68, respectively. This compound also showed a pKi at Androgen receptor [3] of 7.55.

As for `CCOc1ccc2oc(=O)c3c(ccc4[nH]c(=O)cc(C)c43)c2c1OC`, the pEC50 at Androgen receptor [1] was 7.74. Moreover, the pIC50 was below 5.00 on Androgen receptor [2] and 8.00 at Androgen receptor [4]. The compound also showed a pKi at Androgen receptor [3] of 7.21.

At Androgen receptor [1], `COc1cccc2c1-c1ccc3[nH]c(=O)cc(C(F)(F)F)c3c1CO2` gave a pEC50 of 7.70. In addition, the pIC50 against Androgen receptor [2] is below 5.00; against Androgen receptor [4], 7.85. At Androgen receptor [3], this compound showed a pKi of 7.96.

Consider `C=CCC1Oc2cccc(OC)c2-c2ccc3[nH]c(=O)cc(C)c3c21` (stereo not given), for which the pEC50 on Androgen receptor [1] was below 5.00. At Androgen receptor [2], the pIC50 was 6.84. The pKi at Androgen receptor [3] is 5.80.

`COc1c(C(=O)OC(F)(F)F)ccc2oc(=O)c3c(ccc4[nH]c(=O)cc(C)c43)c12` had a negative-log EC50 (pEC50) on Androgen receptor [1] of 7.37. The pIC50 against Androgen receptor [2] was below 5.00; against Androgen receptor [4], 9.70. Further, at Androgen receptor [3], the pKi was 8.00.

For the compound `COc1cccc2c1-c1ccc3[nH]c(=O)cc(C)c3c1CO2`, the pEC50 on Androgen receptor [1] is 7.30. The pIC50 was below 5.00 against Androgen receptor [2] and 7.92 against Androgen receptor [4]. This compound had a pKi on Androgen receptor [3] of 7.23.

`COc1cccc2c(=O)oc3c(ccc4[nH]c(=O)cc(C(F)(F)F)c43)c12`: the pEC50 at Androgen receptor [1] was 7.05. Moreover, the pIC50 at Androgen receptor [2] was below 5.00; at Androgen receptor [4] it was 7.05. The compound further gave a negative logarithm of the Ki (pKi) at Androgen receptor [3] of 7.30.

For the compound `COc1cccc2c1-c1ccc3[nH]c(=O)cc(C)c3c1C(O)O2` (stereo not given), the pEC50 on Androgen receptor [1] was 6.68. In addition, the pIC50 against Androgen receptor [2] is below 5.00; at Androgen receptor [4], 7.30. On Androgen receptor [3], this compound had a pKi of 5.89.

In turn, `COc1cccc2c1-c1ccc3[nH]c(=O)cc(C)c3c1C(OC)O2` (stereo not given) had a pEC50 at Androgen receptor [1] of 6.74. The pIC50 is 7.72 against Androgen receptor [2] and 6.95 against Androgen receptor [4]. At Androgen receptor [3], this compound showed a pKi of 5.63.

For `COc1cccc2c1-c1ccc3[nH]c(=O)cc(C(F)(F)F)c3c1OC2`, the pEC50 on Androgen receptor [1] was below 5.00. Further, the pIC50 on Androgen receptor [2] is 7.11; on Androgen receptor [4], 6.32. At Androgen receptor [3], this compound showed a negative logarithm of the Ki (pKi) of 7.57.

For the compound `COc1c(O)ccc2oc(=O)c3c(ccc4[nH]c(=O)cc(C)c43)c12`, the pEC50 at Androgen receptor [1] was 7.68. Besides, the pIC50 is below 5.00 on Androgen receptor [2] and 9.70 against Androgen receptor [4]. For the same compound, the pKi at Androgen receptor [3] was 8.40.

Regarding `O=c1cc(C(F)(F)F)c2c3c(ccc2[nH]1)-c1c(O)cccc1OC3`, the pEC50 at Androgen receptor [1] was 7.80. The pIC50 is below 5.00 at Androgen receptor [2] and 8.96 on Androgen receptor [4]. The pKi at Androgen receptor [3] is 8.89.

At Androgen receptor [1], `Cc1cc(=O)[nH]c2ccc3c4c(C(=O)OC(C)(C)C)cccc4oc(=O)c3c12` gave a pEC50 of 8.96. In addition, the pIC50 was below 5.00 at Androgen receptor [2] and 8.72 at Androgen receptor [4]. This compound showed a pKi at Androgen receptor [3] of 8.06.
